Source: PMC11116543, “Computer-aided pattern scoring – A multitarget dataset-driven workflow to predict ligands of orphan targets” (Scientific Data, 2024)
Read-outs that look alike come from different tables or passages of the source.

Legend:
[1] = tested on: ABCB1, ABCC1, and ABCG2; assay: Specificity screen against other ABC transporters: calcein AM (A2780/ADR), daunorubicin (H69AR) and pheophorbide A (MDCK II BCRP) assays; assay type: cell-based; details: 10 µM compound; Supplementary Fig. S3; result in words
Source text: Apart from the high hit rate, potency, and structural diversity of the output molecules, it is important to note that the multitarget dataset cross-annotated the molecular-structural and physicochemical information of ligands on a multitude of targets. In order to assess its ABCA-specificity, we tested the hit compounds 4, 7, 8, 11, 13, 28, 29, 30, 32, 41, 46, 47, 50, 58, and 59 against ABC transporters of three different subfamilies, namely ABCB1, ABCC1, and ABCG2[40]. […] On the other hand, it is unlikely that the compounds bear selectivity toward ABCA1, which can be seen as opportunity to explore other ABCA transporters as well, and warrants future investigations.
Suppl ementary Fig. 3 Biological Assessment of hi t compounds 4 , 7, 8 , 11 , 13 , 28, 29, 30, 32,
cal ce i n AM (a), daunorubicin (b), and pheophorbide A (c) assays using ABCB1-expressing
A 2780/ A DR (a), A BCC 1- expressi ng H 69A R (b), and ABCG2-expressing MDCK II BCRP (c) cells as
2. Möhl e, L. , et al . ABC Transporter C1 Prevents Dimethyl Fumarate from Targeting
Alzheimer's Disease. Biology (Basel) 12 ( 7) , 932,
(1 picture or pasted object on this page, not shown here)

[2] = target: ABCA1 (Mus musculus, UniProt P41233); assay: cell-based
[3] = IC50, full concentration-effect curves, Fig. 4(b), mean ± SEM of at least three independent experiments, J774A.1 cells

Chain of ABCA1 (P41233 whole entry): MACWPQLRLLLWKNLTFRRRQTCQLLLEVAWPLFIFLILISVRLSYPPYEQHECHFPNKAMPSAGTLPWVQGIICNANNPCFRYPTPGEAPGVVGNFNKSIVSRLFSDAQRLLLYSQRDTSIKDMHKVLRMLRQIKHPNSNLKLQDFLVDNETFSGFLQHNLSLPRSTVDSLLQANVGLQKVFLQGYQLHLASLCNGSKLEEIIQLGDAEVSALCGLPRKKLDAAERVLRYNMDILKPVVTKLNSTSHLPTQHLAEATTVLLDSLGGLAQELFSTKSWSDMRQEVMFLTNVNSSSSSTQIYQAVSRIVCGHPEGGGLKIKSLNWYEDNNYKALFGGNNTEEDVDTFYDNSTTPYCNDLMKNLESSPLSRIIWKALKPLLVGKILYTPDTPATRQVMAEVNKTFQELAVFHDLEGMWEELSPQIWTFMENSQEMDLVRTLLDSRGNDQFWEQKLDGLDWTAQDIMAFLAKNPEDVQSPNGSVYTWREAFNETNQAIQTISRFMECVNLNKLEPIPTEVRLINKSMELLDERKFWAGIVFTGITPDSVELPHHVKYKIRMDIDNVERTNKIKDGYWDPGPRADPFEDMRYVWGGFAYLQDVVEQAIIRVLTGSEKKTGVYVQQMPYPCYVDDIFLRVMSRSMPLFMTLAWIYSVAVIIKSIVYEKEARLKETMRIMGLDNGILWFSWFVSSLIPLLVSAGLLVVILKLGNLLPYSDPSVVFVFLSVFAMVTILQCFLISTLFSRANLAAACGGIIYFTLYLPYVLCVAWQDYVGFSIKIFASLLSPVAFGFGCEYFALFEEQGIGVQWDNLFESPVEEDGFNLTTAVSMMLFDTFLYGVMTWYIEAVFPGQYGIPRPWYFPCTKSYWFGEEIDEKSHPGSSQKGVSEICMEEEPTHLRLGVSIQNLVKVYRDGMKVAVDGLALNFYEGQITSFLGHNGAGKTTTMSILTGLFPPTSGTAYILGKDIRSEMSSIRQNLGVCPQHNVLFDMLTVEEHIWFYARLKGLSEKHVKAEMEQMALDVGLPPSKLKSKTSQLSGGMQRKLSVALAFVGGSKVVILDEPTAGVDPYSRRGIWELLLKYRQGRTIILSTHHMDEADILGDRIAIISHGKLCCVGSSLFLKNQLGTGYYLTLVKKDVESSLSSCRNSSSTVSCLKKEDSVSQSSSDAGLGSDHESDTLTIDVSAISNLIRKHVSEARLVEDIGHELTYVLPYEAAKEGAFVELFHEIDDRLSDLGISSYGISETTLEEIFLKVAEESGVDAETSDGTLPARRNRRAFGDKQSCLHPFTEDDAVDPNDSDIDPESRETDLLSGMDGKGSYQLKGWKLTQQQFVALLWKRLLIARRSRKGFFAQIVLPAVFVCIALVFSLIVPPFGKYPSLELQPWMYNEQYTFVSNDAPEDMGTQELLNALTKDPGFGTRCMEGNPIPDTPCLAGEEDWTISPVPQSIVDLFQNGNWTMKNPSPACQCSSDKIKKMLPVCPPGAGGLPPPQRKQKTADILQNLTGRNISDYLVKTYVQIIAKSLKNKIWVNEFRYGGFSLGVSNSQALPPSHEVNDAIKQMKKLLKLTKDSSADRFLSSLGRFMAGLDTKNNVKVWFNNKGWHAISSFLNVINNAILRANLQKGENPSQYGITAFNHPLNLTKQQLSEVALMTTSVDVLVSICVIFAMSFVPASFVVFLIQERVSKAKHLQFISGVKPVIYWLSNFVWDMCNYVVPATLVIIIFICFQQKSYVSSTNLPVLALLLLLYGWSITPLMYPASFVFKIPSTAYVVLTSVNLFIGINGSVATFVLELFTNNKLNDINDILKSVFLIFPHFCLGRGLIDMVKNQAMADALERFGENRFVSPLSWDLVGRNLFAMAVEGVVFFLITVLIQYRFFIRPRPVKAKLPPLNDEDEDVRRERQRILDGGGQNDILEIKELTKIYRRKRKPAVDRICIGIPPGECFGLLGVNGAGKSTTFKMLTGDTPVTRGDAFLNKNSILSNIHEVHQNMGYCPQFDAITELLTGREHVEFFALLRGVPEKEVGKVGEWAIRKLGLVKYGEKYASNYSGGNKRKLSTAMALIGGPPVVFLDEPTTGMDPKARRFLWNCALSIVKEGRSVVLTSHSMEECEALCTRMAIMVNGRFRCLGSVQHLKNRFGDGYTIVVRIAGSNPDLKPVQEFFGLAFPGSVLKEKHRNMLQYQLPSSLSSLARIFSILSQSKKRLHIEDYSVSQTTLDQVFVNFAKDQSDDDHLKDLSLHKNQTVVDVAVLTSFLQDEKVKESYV

IC50 [2] [µM] | IC50 [2, 3] [µM] | Structure (SMILES) | inhibition of other ABC transporters (ABCB1, ABCC1, ABCG2) [1]
9.12 ± 2.9 | 21.2 ± 0.6 | COc1ccc2c(N3C[C@H](O)[C@H](O)CC4(CCCC4)C3)ncnc2c1F [Compound 59] | significant inhibition against either two or three of the assessed transporters
21.5 ± 3.4 | 18.9 ± 2.3 | COc1cc(OC)c2cc(C(=O)N3C[C@@H](O)CC4(CCCC4)C3)[nH]c2c1OC [Compound 47] | 
5.08 ± 0.62 | 8.76 ± 1.04 | COCCc1ccc(OCC(O)CNC(=O)C2CC(F)(F)CCC2(C)C)cc1 (centres unmarked) [Compound 11] | least inhibition of other ABC transporters
